Several values for one entry are separate records, joined by “and”; a condition that tells them apart may be missing. Equal entries are not always repeated. Residues, ends and D or L forms follow the SMILES beside them.
Legend:
PD-L1 = molecular target: T1, PD-L1 (Mus musculus, UniProt Q9EP73); experiment: Rescue of PD-L1 mediated inhibition of proliferation, mouse splenocytes; type: cell-based; conditions: splenocyte-based assay
T1 construct: purchased R&D Systems 1019-B7-100
Method: The ability of peptides, peptidomimetics, and small molecules were analyzed for their ability to rescue T-cell proliferation or IFN-γ release from the inhibitory activity of PD-L1 or PD-L2 in a splenocyte/PBMC-based functional assay as per the protocols reported in publication. […] For all in vitro assays, test agent stock was prepared in water and diluted further in the assay media to achieve test concentrations. Each experimental condition was carried out in triplicates. Percent rescue for a given test compound concentration was calculated by normalizing individual percent test agent proliferation or IFN-γ release values to percent anti-CD3 and anti-CD28 antibodies stimulated proliferation or IFN-γ release. EC50 values were derived by plotting transformed data into non-linear fit in sigmoidal dose–response curve using GraphPad Prism software (Version 7).

Pharmacokinetics in mice = type: in vivo, mouse; conditions: mouse, in vivo
Method: Animals in Group 1 were administered with 5% w/v dextrose in water and Group 2 were administered with corresponding formulation listed in the Supplementary Table 6 through oral routes. Blood samples (approximately 40 μl) were collected under light isoflurane anesthesia from submandibular at predose, 0.08 (IV), 0.25, 0.5, 1, 2, 4, 8, and 24 h using sparse sampling technique. Plasma samples were separated by centrifugation of whole blood and stored below −70 °C until bioanalysis. All samples were processed for analysis by protein precipitation and analyzed with fit-for-purpose LC–MS/MS method.

CT26 colon carcinoma [1] = experiment: CT26 model, combination with docetaxel; type: in vivo, mouse; conditions: for TGI: CT26 in Balb/c mice, 12 days; for Individual tumor volumes: individual animals
Method: (§1) Studies in syngeneic models including B16 melanoma metastasis model and CT26 colon carcinoma subcutaneous model were performed as described. For the Docetaxel combination experiment in CT26 model, indicated dosage of docetaxel (Source: Docetere® injection by Dr Reddy’s Laboratories) was dosed intraperitoneally to animals. For the CA-170 combination groups, CA-170 (10 mg/kg/day, oral) was dosed ~10 min after docetaxel. Animal grouping, treatment efficacy assessment and %TGI calculations were performed as mentioned above. For the CT26 experiment with cyclophosphamide, 100 mg/kg of cyclophosphamide was dosed once on day 5 intraperitoneally after cell implantation (first day of dosing for all other groups). Anti-PD1 antibody (Clone J43 from BioXcel) was dosed intraperitoneally at 100 µg/animal once every week.

CT26 colon carcinoma [2] = experiment: CT26 model, survival in combination with cyclophosphamide; type: in vivo, mouse; design: key to Survival data: 0: Censored; Death or tumor volume more than 10% of body weight; conditions: Vehicle+CTX, individual animals
Method: as §1

T1 sequence (Q9EP73 with tags, fused parts or gaps limits assumed): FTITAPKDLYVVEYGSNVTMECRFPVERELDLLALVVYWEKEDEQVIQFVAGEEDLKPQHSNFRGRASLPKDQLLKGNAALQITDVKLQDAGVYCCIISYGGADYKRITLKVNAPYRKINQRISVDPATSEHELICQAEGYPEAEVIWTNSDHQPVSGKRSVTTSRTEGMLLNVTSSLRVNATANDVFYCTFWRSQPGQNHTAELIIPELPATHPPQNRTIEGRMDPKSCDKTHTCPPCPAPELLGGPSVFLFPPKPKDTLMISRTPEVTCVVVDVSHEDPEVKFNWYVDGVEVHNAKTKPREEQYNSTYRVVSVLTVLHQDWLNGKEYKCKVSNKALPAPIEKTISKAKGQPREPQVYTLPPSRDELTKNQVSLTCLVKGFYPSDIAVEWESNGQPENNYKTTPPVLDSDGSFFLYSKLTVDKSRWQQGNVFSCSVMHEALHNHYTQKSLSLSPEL

SMILES: C[C@@H](O)[C@H](NC(=O)[C@H](CC(N)=O)NC(=O)[C@@H](N)CO)C(=O)O [PM-116] (H-Ser-Asn-Thr-OH; N-terminus and C-terminus assumed)
- EC50 (PD-L1): 6 nM

SMILES: C[C@@H](O)[C@@H]1NC(=O)[C@H](CC(N)=O)NC(=O)[C@H](CO)NC(=O)[C@H](Cc2ccccc2)NC(=O)[C@H](CO)NC(=O)[C@H](CCC(=O)O)NC(=O)[C@H](CO)NC1=O [PM-823] (HELM PEPTIDE1{E.S.F.S.N.T.S}$PEPTIDE1,PEPTIDE1,1:R1-7:R2$$$V2.0)
- AUC (Pharmacokinetics in mice; iv, 1 mg/kg): 2180 ng·h/mL
- clearance (Pharmacokinetics in mice; iv, 1 mg/kg): 22.9 mL/min/kg
- bioavailability (Pharmacokinetics in mice; po): 6.8%
- oral bioavailability (in words) (Pharmacokinetics in mice; po): not orally bioavailable
- AUC (Pharmacokinetics in mice; po, 30 mg/kg): 495 ng·h/mL
- Cmax (Pharmacokinetics in mice; po, 30 mg/kg): 554 ng/mL
- EC50 (PD-L1): 55 nM

SMILES: CC(=O)O[C@@]12CO[C@@H]1C[C@H](O)[C@@]1(C)C(=O)[C@H](O)C3=C(C)[C@@H](OC(=O)[C@H](O)[C@@H](NC(=O)OC(C)(C)C)c4ccccc4)C[C@@](O)([C@@H](OC(=O)c4ccccc4)[C@H]21)C3(C)C [docetaxel]
- TGI (CT26 colon carcinoma [1]; single agent docetaxel 1 mg/kg): 44%
- TGI (CT26 colon carcinoma [1]; single agent docetaxel 10 mg/kg): 43%
- Individual tumor volumes (CT26 colon carcinoma [1]; Docetaxel 1mg/kg, day 1 of treatment): 22.15 mm3 and 31.55 mm3 and 34.9 mm3 and 45.07 mm3 and 50.49 mm3 and 58.82 mm3 and 62.62 mm3 and 76.97 mm3 and 88.69 mm3
- Individual tumor volumes (CT26 colon carcinoma [1]; Docetaxel 1mg/kg, day 4 of treatment): 46.4 mm3 and 28.72 mm3 and 78.5 mm3 and 62.65 mm3 and 97.03 mm3 and 124.03 mm3 and 118.17 mm3 and 67.74 mm3 and 149.61 mm3
- Individual tumor volumes (CT26 colon carcinoma [1]; Docetaxel 1mg/kg, day 6 of treatment): 132.42 mm3 and 19.09 mm3 and 90.17 mm3 and 95.74 mm3 and 164.49 mm3 and 224.32 mm3 and 158.95 mm3 and 86.49 mm3 and 198.71 mm3
- Individual tumor volumes (CT26 colon carcinoma [1]; Docetaxel 1mg/kg, day 8 of treatment): 186.57 mm3 and 10.93 mm3 and 133.19 mm3 and 151.25 mm3 and 260.04 mm3 and 385.2 mm3 and 276.47 mm3 and 199.1 mm3 and 392.38 mm3
- Individual tumor volumes (CT26 colon carcinoma [1]; Docetaxel 1mg/kg, day 11 of treatment): 263.17 mm3 and 22.61 mm3 and 143.19 mm3 and 316.97 mm3 and 451.22 mm3 and 764.37 mm3 and 562.88 mm3 and 301.78 mm3 and 690.4 mm3
- Individual tumor volumes (CT26 colon carcinoma [1]; Docetaxel 10mg/kg, day 1 of treatment): 22.87 mm3 and 29.49 mm3 and 35.8 mm3 and 43.1 mm3 and 51.4 mm3 and 57.21 mm3 and 63.02 mm3 and 74.99 mm3 and 92.42 mm3
- Individual tumor volumes (CT26 colon carcinoma [1]; Docetaxel 10mg/kg, day 4 of treatment): 54.41 mm3 and 32.56 mm3 and 76.21 mm3 and 71.86 mm3 and 73.1 mm3 and 87.77 mm3 and 117.98 mm3 and 93.45 mm3 and 48.5 mm3
- Individual tumor volumes (CT26 colon carcinoma [1]; Docetaxel 10mg/kg, day 6 of treatment): 109.48 mm3 and 42.16 mm3 and 129.37 mm3 and 103.08 mm3 and 111.56 mm3 and 155.23 mm3 and 165.2 mm3 and 163.17 mm3 and 79.31 mm3
- Individual tumor volumes (CT26 colon carcinoma [1]; Docetaxel 10mg/kg, day 8 of treatment): 163.72 mm3 and 98.83 mm3 and 244.12 mm3 and 203.26 mm3 and 199.06 mm3 and 316.02 mm3 and 316.69 mm3 and 217.54 mm3 and 105.3 mm3
- Individual tumor volumes (CT26 colon carcinoma [1]; Docetaxel 10mg/kg, day 11 of treatment): 322.31 mm3 and 251.42 mm3 and 447.21 mm3 and 378.85 mm3 and 332.62 mm3 and 662.99 mm3 and 641.53 mm3 and 377.51 mm3 and 200.96 mm3

SMILES: O=P1(N(CCCl)CCCl)NCCCO1 (stereo not shown) [CTX]
- Survival data (CT26 colon carcinoma [2]; day 1 of treatment): 0
- Survival data (CT26 colon carcinoma [2]; day 3 of treatment): 0
- Survival data (CT26 colon carcinoma [2]; day 6 of treatment): 0
- Survival data (CT26 colon carcinoma [2]; day 8 of treatment): 0
- Survival data (CT26 colon carcinoma [2]; day 10 of treatment): 0
- Survival data (CT26 colon carcinoma [2]; day 12 of treatment): 1 and 0
- Survival data (CT26 colon carcinoma [2]; day 14 of treatment): 1 and 0
- Survival data (CT26 colon carcinoma [2]; day 15 of treatment): 0
